Experimental data reported in patent US9340528B2, “Substituted aminoquinoxalines as tyrosine threonine kinase inhibitors” (BAYER PHARMA AKTIENGESELLSCHAFT, priority 2009, dated 2016).

Test system: HeLa human cervical tumor cells (ATCC CCL-2)
Experiment: Proliferation Assay (crystal violet staining, 4 days)
Format: cell-based
Details: 96 h, 4 days incubation, read-out: EO-PROLIF-HELA
Protocol: Biological Assay: Proliferation Assay
Cultivated HeLa human cervical tumor cells (ATCC CCL-2) were plated at a density of 3000 cells/well in a 96-well multititer plate in 200 μl DMEM/HAMS F12 medium supplemented with 2 mM L-Glutamine and 10% fetal calf serum. After 24 hours, the cells of one plate (zero-point plate) were stained with crystal violet (see below), while the medium of the other plates was replaced by fresh culture medium (200 μl), to which the test substances were added in various concentrations (0 μM, as well as in the range of 0.01-30 μM; the final concentration of the solvent dimethyl sulfoxide was 0.5%). The cells were incubated for 4 days in the presence of test substances. Cell proliferation was determined by staining the cells with crystal violet: the cells were fixed by adding 20 μl/measuring point of an 11% glutaric aldehyde solution for 15 minutes at room temperature. After three washing cycles of the fixed cells with water, the plates were dried at room temperature. The cells were stained by adding 100 μl/measuring point of a 0.1% crystal violet solution (pH 3.0). After three washing cycles of the stained cells with water, the plates were dried at room temperature. The dye was dissolved by adding 100 μl/measuring point of a 10% acetic acid solution. The extinction was determined by photometry at a wavelength of 595 nm. The change of cell number, in percent, was calculated by normalization of the measured values to the extinction values of the zero-point plate (=0%) and the extinction of the untreated (0 μm) cells (=100%). The IC50 values were determined by means of a 4 parameter fit using the company's own software.

| IC50 [nM] | SMILES |
| --- | --- |
| 3000 | CNC(=O)c1ccc(-c2ccc3ncc(N4CCOCC4)nc3c2)cc1 [Example 1.47, N-methyl-4-[3-(morpholin-4-yl)quinoxalin-6-yl]benzamide] |
| 889 | CN1CCN(Cc2ccc(NC(=O)Nc3ccc(-c4ccc5ncc(N6CCOCC6)nc5c4)cc3)cc2C(F)(F)F)CC1 [Example 1.71, 1-{4-[(4-methylpiperazin-1-yl)methyl]-3-(trifluoromethyl)phenyl}-3-{4-[3-(morpholin-4-yl)quinoxalin-6-yl]phenyl}urea] |
| 3000 | CC(=O)Nc1ccc(-c2ccc3ncc(N4CCOCC4)nc3c2)cc1 [Example 1.73, N-{4-[3-(morpholin-4-yl)quinoxalin-6-yl]phenyl}acetamide] |
| 2320 | Cc1cc(-c2ccc3ncc(N4CCOCC4)nc3c2)cc(C)c1O [Example 1.108, 2,6-dimethyl-4-[3-(morpholin-4-yl)quinoxalin-6-yl]phenol] |
| 1120 | CN1CCN(Cc2ccc(NC(=O)Nc3ccc(-c4ccc5ncc(N6CCCCC6)nc5c4)cc3)cc2C(F)(F)F)CC1 [Example 2.73, 1-{4-[(4-methylpiperazin-1-yl)methyl]-3-(trifluoromethyl)phenyl}-3-{4-[3-(piperidin-1-yl)quinoxalin-6-yl]phenyl}urea] |
| 3000 | O=C(Nc1ccccc1)c1ccc(-c2ccc3ncc(N4CCCCC4)nc3c2)cc1 [Example 2.90, N-phenyl-4-[3-(piperidin-1-yl)quinoxalin-6-yl]benzamide] |
| 2510 | Oc1ccc(-c2ccc3ncc(N4CCOCC4)nc3c2)cc1 [Example 3.5, 4-[3-(morpholin-4-yl)quinoxalin-6-yl]phenol] |
| 2920 | Oc1ccc(-c2ccc3ncc(N4CCN(c5ccncc5)CC4)nc3c2)cc1 [Example 3.15, 4-{3-[4-(pyridin-4-yl)piperazin-1-yl]quinoxalin-6-yl}phenol] |
| 3870 | Oc1ccc(-c2ccc3ncc(N4CCN(c5cnccn5)CC4)nc3c2)cc1 [Example 3.17, 4-{3-[4-(pyrazin-2-yl)piperazin-1-yl]quinoxalin-6-yl}phenol] |
| 8250 | Oc1ccc(-c2ccc3ncc(N4CCN(Cc5cccnc5)CC4)nc3c2)cc1 [Example 3.35, 4-{3-[4-(pyridin-3-ylmethyl)piperazin-1-yl]quinoxalin-6-yl}phenol] |
| 10000 | O=C(Cc1ccccc1)Nc1ccc(-c2ccc3ncc(N4CCOCC4)nc3c2)cc1 [Example 4.3, N-{4-[3-(morpholin-4-yl)quinoxalin-6-yl]phenyl}-2-phenylacetamide] |
| 8120 | O=C(Cc1cccc(C(F)(F)F)c1)Nc1ccc(-c2ccc3ncc(N4CCOCC4)nc3c2)cc1 [Example 4.13, N-{4-[3-(morpholin-4-yl)quinoxalin-6-yl]phenyl}-2-[3-(trifluoromethyl)phenyl]acetamide] |
| 10000 | O=C(NCc1ccccc1)Nc1ccc(-c2ccc3ncc(N4CCOCC4)nc3c2)cc1 [Example 6.6, 1-benzyl-3-{4-[3-(morpholin-4-yl)quinoxalin-6-yl]phenyl}urea] |
| 3930 | O=C(Nc1ccc(-c2ccc3ncc(N4CCOCC4)nc3c2)cc1)Nc1cccnc1 [Example 6.8, 1-{4-[3-(morpholin-4-yl)quinoxalin-6-yl]phenyl}-3-pyridin-3-ylurea] |
| 2610 | O=C(Cc1ccccc1)Nc1ccc(-c2ccc3ncc(N4CCN(c5ccncc5)CC4)nc3c2)cc1 [Example 7.1, 2-phenyl-N-{4-[3-(4-pyridin-4-yl-piperazin-1-yl)-quinoxalin-6-yl]-phenyl}-acetamide] |
| 2840 | O=C(Cc1ccccc1F)Nc1ccc(-c2ccc3ncc(N4CCN(c5ccncc5)CC4)nc3c2)cc1 [Example 7.2, 2-(2-fluorophenyl)-N-(4-{3-[4-(pyridin-4-yl)piperazin-1-yl]quinoxalin-6-yl}phenyl)acetamide] |
| 2560 | CC(C(=O)Nc1ccc(-c2ccc3ncc(N4CCN(c5ccncc5)CC4)nc3c2)cc1)c1ccccc1 (stereo not drawn) [Example 7.3, 2-phenyl-N-(4-{3-[4-(pyridin-4-yl)piperazin-1-yl]quinoxalin-6-yl}phenyl)propanamide] |
| 1430 | O=C(CCc1ccccc1)Nc1ccc(-c2ccc3ncc(N4CCN(c5ccncc5)CC4)nc3c2)cc1 [Example 7.4, 3-phenyl-N-(4-{3-[4-(pyridin-4-yl)piperazin-1-yl]quinoxalin-6-yl}phenyl)propanamide] |
| 2790 | O=C(Cc1ccccn1)Nc1ccc(-c2ccc3ncc(N4CCN(c5ccncc5)CC4)nc3c2)cc1 [Example 7.6, 2-(pyridin-2-yl)-N-(4-{3-[4-(pyridin-4-yl)piperazin-1-yl]quinoxalin-6-yl}phenyl)acetamide] |
| 1710 | O=C(CC1CC1)Nc1ccc(-c2ccc3ncc(N4CCN(c5ccncc5)CC4)nc3c2)cc1 [Example 7.7, 2-cyclopropyl-N-(4-{3-[4-(pyridin-4-yl)piperazin-1-yl]quinoxalin-6-yl}phenyl)acetamide] |
| 3000 | O=C(Nc1ccc(-c2ccc3ncc(N4CCN(c5ccncc5)CC4)nc3c2)cc1)NC1CC1 [Example 8.3, 1-cyclopropyl-3-(4-{3-[4-(pyridin-4-yl)piperazin-1-yl]quinoxalin-6-yl}phenyl)urea] |
| 3000 | O=C(Cc1ccccc1)Nc1ccc(-c2ccc3ncc(N4CCN(Cc5cccnc5)CC4)nc3c2)cc1 [Example 9.1, 2-phenyl-N-{4-[3-(4-pyridin-3-ylmethyl-piperazin-1-yl)-quinoxalin-6-yl]-phenyl}-acetamide] |
| 3000 | O=C(Cc1ccccc1F)Nc1ccc(-c2ccc3ncc(N4CCN(Cc5cccnc5)CC4)nc3c2)cc1 [Example 9.2, 2-(2-fluorophenyl)-N-(4-{3-[4-(pyridin-3-ylmethyl)piperazin-1-yl]quinoxalin-6-yl}phenyl)acetamide] |
| 3000 | CC(C(=O)Nc1ccc(-c2ccc3ncc(N4CCN(Cc5cccnc5)CC4)nc3c2)cc1)c1ccccc1 (stereo not drawn) [Example 9.3, 2-phenyl-N-(4-{3-[4-(pyridin-3-ylmethyl)piperazin-1-yl]quinoxalin-6-yl}phenyl)propanamide] |
